In patent US20210070748A1, “INHIBITORS OF BRUTONS TYROSINE KINASE” (Pharmacyclics LLC, priority 2015, published 2021) one finds IC50 data, which are given here for 19 compounds.

SMILES strings stand for the structures. Where a name gives a salt, the structure may show the parent alone. Read-outs that look alike come from different tables or passages of the source.

Assay type in all cases: biochemical
One assay deals with T1, JAK3 (Homo sapiens, UniProt P52333).
T1 sequence (P52333 1-1124): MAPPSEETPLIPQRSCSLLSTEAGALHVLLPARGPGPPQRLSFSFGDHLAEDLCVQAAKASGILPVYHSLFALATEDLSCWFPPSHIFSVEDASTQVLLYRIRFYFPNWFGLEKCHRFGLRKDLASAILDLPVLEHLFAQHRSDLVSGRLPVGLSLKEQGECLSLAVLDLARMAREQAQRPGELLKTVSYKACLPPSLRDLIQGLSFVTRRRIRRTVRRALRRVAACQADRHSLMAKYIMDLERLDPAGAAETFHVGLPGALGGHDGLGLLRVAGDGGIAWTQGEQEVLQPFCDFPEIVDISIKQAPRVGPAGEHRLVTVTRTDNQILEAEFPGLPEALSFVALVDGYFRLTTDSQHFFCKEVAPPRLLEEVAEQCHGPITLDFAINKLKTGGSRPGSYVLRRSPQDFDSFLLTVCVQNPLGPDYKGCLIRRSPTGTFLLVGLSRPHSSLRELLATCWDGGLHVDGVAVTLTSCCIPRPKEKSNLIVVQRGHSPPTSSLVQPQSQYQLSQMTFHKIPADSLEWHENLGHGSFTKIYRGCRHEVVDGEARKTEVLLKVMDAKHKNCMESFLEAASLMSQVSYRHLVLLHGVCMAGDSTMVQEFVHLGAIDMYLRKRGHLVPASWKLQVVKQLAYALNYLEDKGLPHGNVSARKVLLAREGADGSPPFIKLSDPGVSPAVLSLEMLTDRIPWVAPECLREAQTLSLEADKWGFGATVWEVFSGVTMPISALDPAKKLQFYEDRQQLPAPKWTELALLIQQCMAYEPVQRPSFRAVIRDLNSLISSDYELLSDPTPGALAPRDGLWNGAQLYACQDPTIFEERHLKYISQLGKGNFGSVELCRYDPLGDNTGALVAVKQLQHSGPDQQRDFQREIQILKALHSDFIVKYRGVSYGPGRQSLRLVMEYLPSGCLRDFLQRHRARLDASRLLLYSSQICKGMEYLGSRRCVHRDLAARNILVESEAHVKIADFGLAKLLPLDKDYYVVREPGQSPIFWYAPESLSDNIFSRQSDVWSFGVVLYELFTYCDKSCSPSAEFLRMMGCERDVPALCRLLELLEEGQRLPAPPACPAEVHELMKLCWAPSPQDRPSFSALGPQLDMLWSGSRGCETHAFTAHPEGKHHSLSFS
Nature of the assay: Inhibition of a panel of kinases, in vitro HotSpot kinase assay: JAK3. The settings on record: 1 μM ATP, read-out: JAK3 (IC50).

The next assay deals with T2, BTK-WT (Homo sapiens, UniProt Q06187).
T2 construct: purified from insect cells as a full-length construct containing an N-terminal 6X-His tag; His6 (N); made in house; host or cells: insect cells (baculovirus Sf21 in Method B)
Put plainly: Btk in vitro inhibitory activity (one of Method A TR-FRET, Method B electrophoretic mobility shift, Method C radiometric filter binding). As to conditions: read-out: BTK-WT (IC50).

The target in a further assay is LCK (Homo sapiens, UniProt P06239). Nature of the assay: Inhibition of a panel of kinases, in vitro HotSpot kinase assay: LCK. As to conditions: 1 μM ATP, read-out: LCK (IC50).
Sequence of LCK (P06239 whole entry): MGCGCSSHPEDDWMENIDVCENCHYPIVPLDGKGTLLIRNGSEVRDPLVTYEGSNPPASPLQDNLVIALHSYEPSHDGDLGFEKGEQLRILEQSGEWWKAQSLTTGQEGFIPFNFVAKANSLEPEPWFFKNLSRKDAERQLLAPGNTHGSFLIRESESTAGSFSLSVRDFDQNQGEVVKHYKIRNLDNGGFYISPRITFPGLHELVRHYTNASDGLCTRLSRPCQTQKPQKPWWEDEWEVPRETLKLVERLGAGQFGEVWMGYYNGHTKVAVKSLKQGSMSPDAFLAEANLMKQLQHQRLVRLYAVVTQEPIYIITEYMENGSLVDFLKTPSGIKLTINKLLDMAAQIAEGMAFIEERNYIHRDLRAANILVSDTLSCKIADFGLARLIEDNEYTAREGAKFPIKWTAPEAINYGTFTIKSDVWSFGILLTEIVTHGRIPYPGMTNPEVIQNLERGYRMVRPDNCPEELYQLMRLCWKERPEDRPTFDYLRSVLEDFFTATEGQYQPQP

T2 sequence (Q06187 whole entry): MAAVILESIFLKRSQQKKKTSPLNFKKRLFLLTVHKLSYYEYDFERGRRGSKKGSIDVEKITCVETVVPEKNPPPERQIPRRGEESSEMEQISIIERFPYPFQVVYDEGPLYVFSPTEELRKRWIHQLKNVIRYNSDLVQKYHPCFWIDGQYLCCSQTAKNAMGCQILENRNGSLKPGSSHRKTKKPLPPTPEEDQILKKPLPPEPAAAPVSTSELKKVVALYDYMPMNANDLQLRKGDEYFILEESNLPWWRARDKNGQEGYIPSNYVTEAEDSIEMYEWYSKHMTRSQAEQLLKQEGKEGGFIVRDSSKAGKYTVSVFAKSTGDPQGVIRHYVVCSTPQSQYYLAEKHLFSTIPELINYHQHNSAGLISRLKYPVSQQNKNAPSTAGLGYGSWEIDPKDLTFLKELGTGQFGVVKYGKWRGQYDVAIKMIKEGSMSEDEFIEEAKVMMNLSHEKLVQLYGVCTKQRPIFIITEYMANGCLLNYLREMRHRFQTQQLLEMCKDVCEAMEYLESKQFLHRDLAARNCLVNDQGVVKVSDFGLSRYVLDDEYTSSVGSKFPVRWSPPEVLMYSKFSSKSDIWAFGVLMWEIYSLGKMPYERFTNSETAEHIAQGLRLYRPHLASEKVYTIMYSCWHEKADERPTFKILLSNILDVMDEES

On to `Cc1cc(Nc2nc(N[C@@H]3CCCN(C(=O)c4ccc(N(C)C)cc4)C3)cnc2C(N)=O)sn1` [Example C-7, 5-{[(3R)-1-[4-(dimethylamino)benzoyl]piperidin-3-yl]amino}-3-[(3-methyl-1,2-thiazol-5-yl)amino]pyrazine-2-carboxamide hydrochloride], for which the IC50 was over 10 µM at JAK3 (Table 12, Formula C-I); over 10 µM at BTK-WT (Table 12, Formula C-I); over 10 µM on LCK (Table 12, Formula C-I).
Turning to `Cc1cc(Nc2cc(N3CCC[C@@H](NC(=O)c4ccc(N(C)C)cc4)C3)cnc2C(N)=O)sn1` [Example A-62, 5-[(3R)-3-[4-(dimethylamino)benzamido]piperidin-1-yl]-3-[(3-methyl-1,2-thiazol-5-yl)amino]pyridine-2-carboxamide], the IC50 on JAK3 (Table 10, Formula A-I) is over 10 µM; on BTK-WT (Table 10, Formula A-I), at most 0.1 µM; at LCK (Table 10, Formula A-I) it was over 10 µM.
`Cc1cc(Nc2nc(N3CCC[C@@H](NC(=O)c4ccccc4F)C3)cnc2C(N)=O)sn1` [Example A-23, 5-[(3R)-3-(2-fluorobenzamido)piperidin-1-yl]-3-[(3-methyl-1,2-thiazol-5-yl)amino]pyrazine-2-carboxamide]: the IC50 on JAK3 (Table 10, Formula A-I) is 0.1 to 1 µM; on BTK-WT (Table 10, Formula A-I), at most 0.1 µM; at LCK (Table 10, Formula A-I), 0.1 to 1 µM.
On to `Cc1cc(Nc2nc(N3CCC[C@@H](NC(=O)c4ccncc4)C3)cnc2C(N)=O)sn1` [Example A-29, 3-[(3-methyl-1,2-thiazol-5-yl)amino]-5-[(3R)-3-(pyridine-4-amido)piperidin-1-yl]pyrazine-2-carboxamide], for which the IC50 on JAK3 (Table 10, Formula A-I) was 0.1 to 1 µM; at BTK-WT (Table 10, Formula A-I), at most 0.1 µM; on LCK (Table 10, Formula A-I), 1 to 10 µM.
Taken in the same sequence, the figures for `CCn1ccc2cc(C(=O)N[C@@H]3CCCN(c4cnc(C(N)=O)c(Nc5cc(C)ns5)n4)C3)ccc21` [Example A-31, N-[(3R)-1-{5-carbamoyl-6-[(3-methyl-1,2-thiazol-5-yl)amino]pyrazin-2-yl}piperidin-3-yl]-1-ethyl-1H-indole-5-carboxamide] were 0.1 to 1 µM, at most 0.1 µM and 0.1 to 1 µM.
Regarding `C[C@@H]1[C@H](NC(=O)N(C)C)CCCN1c1cnc(C(N)=O)c(Nc2ccc3ncccc3c2)n1` [Example A-59, 5-[(2R,3R)-3-[(dimethylcarbamoyl)amino]-2-methylpiperidin-1-yl]-3-[(quinolin-6-yl)amino]pyrazine-2-carboxamide], the IC50 is 1 to 10 µM at JAK3 (Table 10, Formula A-I); at most 0.1 µM at BTK-WT (Table 10, Formula A-I); 0.1 to 1 µM at LCK (Table 10, Formula A-I).
Regarding `CC1(c2ccc(Nc3nc(N4CCC[C@@H](NC(=O)c5ccccc5)C4)cnc3C(N)=O)cc2)CCN(C2CC2)CC1` [Example A-48, 5-[(3R)-3-benzamidopiperidin-1-yl]-3-{[4-(1-cyclopropyl-4-methylpiperidin-4-yl)phenyl]amino}pyrazine-2-carboxamide], the IC50 is under 0.1 µM on JAK3 (Table 10, Formula A-I); at most 0.1 µM at BTK-WT (Table 10, Formula A-I); under 0.1 µM on LCK (Table 10, Formula A-I).
In the case of `Cc1cc(Nc2cc(N3CCC[C@@H](NC(=O)N(C)C)C3)cnc2C(N)=O)sn1` [Example A-64, 5-[(3R)-3-[(dimethylcarbamoyl)amino]piperidin-1-yl]-3-[(3-methyl-1,2-thiazol-5-yl)amino]pyridine-2-carboxamide], the IC50 is 1 to 10 µM on JAK3 (Table 10, Formula A-I); 0.1 to 1 µM on BTK-WT (Table 10, Formula A-I); over 10 µM on LCK (Table 10, Formula A-I).
With `Cc1cc(Nc2nc(N[C@@H]3CCCNC3)cnc2C(N)=O)sn1` [Example C-1, 3-[(3-methyl-1,2-thiazol-5-yl)amino]-5-{[(3R)-piperidin-3-yl]amino}pyrazine-2-carboxamide], the IC50 at JAK3 (Table 12, Formula C-I) is under 0.1 µM; at BTK-WT (Table 12, Formula C-I) it was at most 0.1 µM; on LCK (Table 12, Formula C-I) it was under 0.1 µM.
Regarding `Cc1cc(Nc2nc(N3CCC[C@@H](NC(=O)c4cccc(N(C)C)c4)C3)cnc2C(N)=O)sn1` [Example A-27, (5-[(3R)-3-[3-(dimethylamino)benzamido]piperidin-1-yl]-3-[(3-methyl-1,2-thiazol-5-yl)amino]pyrazine-2-carboxamide hydrochloride], the IC50 was 1 to 10 µM on JAK3 (Table 10, Formula A-I); at most 0.1 µM on BTK-WT (Table 10, Formula A-I); 0.1 to 1 µM at LCK (Table 10, Formula A-I).
Turning to `Cc1cccc(NC(=O)N[C@@H]2CCCN(c3cnc(C(N)=O)c(Nc4ccc(C5CCN(C6CCCC6)CC5)cc4)n3)C2)c1` [Example A-4, 3-{[4-(1-cyclopentylpiperidin-4-yl)phenyl]amino}-5-[(3R)-3-{[(3-methylphenyl)carbamoyl]amino}piperidin-1-yl]pyrazine-2-carboxamide hydrochloride], the IC50 on JAK3 (Table 10, Formula A-I) was 0.1 to 1 µM; at BTK-WT (Table 10, Formula A-I), at most 0.1 µM; on LCK (Table 10, Formula A-I), under 0.1 µM.
For the compound `Cc1cc(Nc2nc(N3CC[C@@H](NC(=O)c4ccccc4)C3)cnc2C(N)=O)sn1` [Example A-50, 5-[(3R)-3-benzamidopyrrolidin-1-yl]-3-[(3-methyl-1,2-thiazol-5-yl)amino]pyrazine-2-carboxamide], the IC50 is over 10 µM at JAK3 (Table 10, Formula A-I); 0.1 to 1 µM on BTK-WT (Table 10, Formula A-I); 1 to 10 µM on LCK (Table 10, Formula A-I).
For `Cc1cc(Nc2nc(N3CCC[C@@H](N4CCN(c5cccc(Cl)c5)C4=O)C3)cnc2C(N)=O)sn1` [Example A-52, 5-[(3R)-3-[3-(3-chlorophenyl)-2-oxoimidazolidin-1-yl]piperidin-1-yl]-3-[(3-methyl-1,2-thiazol-5-yl)amino]pyrazine-2-carboxamide], the IC50 at JAK3 (Table 10, Formula A-I) is 0.1 to 1 µM; at BTK-WT (Table 10, Formula A-I), at most 0.1 µM; on LCK (Table 10, Formula A-I) it was under 0.1 µM.
Consider `Cc1cc(Nc2nc(N3CCC[C@H](NC(=O)N(C)C)[C@@H]3C)cnc2C(N)=O)sn1` [Example A-58, 5-[(2S,3S)-3-[(dimethylcarbamoyl)amino]-2-methylpiperidin-1-yl]-3-[(3-methyl-1,2-thiazol-5-yl)amino]pyrazine-2-carboxamide], for which the IC50 at JAK3 (Table 10, Formula A-I) is 1 to 10 µM; at BTK-WT (Table 10, Formula A-I), at most 0.1 µM; on LCK (Table 10, Formula A-I) it was 1 to 10 µM.
Regarding `Cc1cc(Nc2nc(N[C@@H]3CCN(C(=O)c4ccc(N(C)C)cc4)C3)cnc2C(N)=O)sn1` [Example C-13, 5-([(3R)-1-[4-(dimethylamino)benzoyl]pyrrolidin-3-yl]amino)-3-[(3-methyl-1,2-thiazol-5-yl)amino]pyrazine-2-carboxamide], the IC50 on JAK3 (Table 12, Formula C-I) is 1 to 10 µM; at BTK-WT (Table 12, Formula C-I), at most 0.1 µM; at LCK (Table 12, Formula C-I), 1 to 10 µM.
Regarding `Cc1cc(Nc2nc(N3CCC[C@@H](NC(=O)c4ccc(N5CCCC5)cc4)C3)cnc2C(N)=O)sn1` [Example A-26, 3-[(3-methyl-1,2-thiazol-5-yl)amino]-5-[(3R)-3-[4-(pyrrolidin-1-yl)benzamido]piperidin-1-yl]pyrazine-2-carboxamide], the IC50 is 1 to 10 µM at JAK3 (Table 10, Formula A-I); at most 0.1 µM at BTK-WT (Table 10, Formula A-I); over 10 µM on LCK (Table 10, Formula A-I).
As for `NC(=O)c1ncc(N2CCC[C@@H](NC(=O)c3ccccc3)C2)nc1Nc1ccc2ncccc2c1` [Example A-45, 5-[(3R)-3-benzamidopiperidin-1-yl]-3-[(quinolin-6-yl)amino]pyrazine-2-carboxamide], the IC50 at JAK3 (Table 10, Formula A-I) was 1 to 10 µM; at BTK-WT (Table 10, Formula A-I), at most 0.1 µM; at LCK (Table 10, Formula A-I), over 10 µM.
As for `CN1CCN(C(=O)c2ccc(Nc3nc(NC4CCC(NC(=O)c5ccc(C6CC6)cc5F)CC4)cnc3C(N)=O)cc2)CC1` (stereo not drawn) [Example B-15, 5-(4-(4-cyclopropyl-2-fluoro-benzamido)cyclohexyl-amino)-3-(4-(4-methylpiperazine-1-carbonyl)phenylamino) pyrazine-2-carboxamide], the IC50 on JAK3 (Table 11, Formula B-I) was under 0.1 µM; on BTK-WT (Table 11, Formula B-I), at most 0.1 µM; on LCK (Table 11, Formula B-I), under 0.1 µM.
As to `Cc1cc(Nc2nc(N(C)CC3CCN(C(=O)c4ccccc4)CC3)cnc2C(N)=O)sn1` [Example C-15, 5-{[(1-benzoylpiperidin-4-yl)methyl](methyl)amino}-3-[(3-methyl-1,2-thiazol-5-yl)amino]pyrazine-2-carboxamide], the IC50 at JAK3 (Table 12, Formula C-I) lay in the range of 1 to 10 µM; at BTK-WT (Table 12, Formula C-I), 0.1 to 1 µM; at LCK (Table 12, Formula C-I) it was 1 to 10 µM.
